Assay results as given in patent publication US20080031868A1, “HUMAN LYSOZYME MEDICINE, ITS MANUFACTURING METHOD AND APPLICATION THEREOF” (priority 2005, published 2008).
In brackets after ≈: the same amount, converted by molar mass.

Key:
No. 04 Coronavirus [1] = assay: Inhibition on No. 04 Coronavirus in HELA cells (CPE method); format: cell-based; settings: 2 h
Protocol: HELA cells were seeded on 96-well cultivation plates at the concentration of 400,000/ml and grown to monolayer at 37° C. in 5% CO2 incubator for 24 hours. After removal of cultivation liquid, coronavirus liquid were added to HELA cells and absorbed at 37° C. in 5% CO2 incubator for 2 hours. […] At the same time reference cells and reference virous were cultivated at 37° C. in 5% CO2 incubator for 5 to 7 days. Inverted microscope was used everyday to observe the cytopathic effect (CPE) of virus. The determination were ended according to the appearance of “+++-++++”. […] The determination was repeated three times.

HELA cell = assay: Toxicity to HELA cell (CPE, Reed-Muench); settings: 6 days
Protocol: 1. Determination of the Toxicity of Recombinant Human Lysozyme to HELA Cell:
HELA cells were seeded on 96-well culture plates at the concentration of 400,000/mi and grown at 37° C. in a 5% CO2 incubator for 2 hours. 100 μl recombinant human lysozyme which were double-diluted from 6000 ug/ml to 11.7 ug/ml and positive reference medicine which were double-diluted from 6000 ug/ml to 11.7 ug/ml were respectively added to 3 wells per concentration. At the same time the reference cells were cultivated at 37° C. in a 5% CO2 incubator for 6 days. Inverted microscope was used everyday to observe the cytopathic effect (CPE). The cytopathic effect under 25% was recorded as “+”, the cytopathic effect under 26%˜50% was recorded as “++”, the cytopathic effect under 51%˜75% was recorded as “+++” and the cytopathic effect under 76%˜100% was recorded as “++++”. Drug median toxic dose (TD50) and minimum toxic dose (TD0) were calculated by using Reed-Muench method.

No. 04 Coronavirus [2] = assay: organism not typed; format: cell-based
Protocol: HELA cells were seeded on 96-well cultivation plates at the concentration of 400,000/ml and grown to monolayer at 37° C. in 5% CO2 incubator for 24 hours. […] Then 100 TCID50coronavirus liquid were added to HELA cells. At the same time reference cell and reference virous were cultivated at 37° C. in 5% CO2 incubator for 5 to 7 days. At the same time normal cell reference and virous reference were cultivated at 37° C. in 5% CO2 incubator for 5 to 7 days. Inverted microscope was used everyday to observe the cytopathic effect (CPE) of virus. The determination were ended according to the appearance of “+++-++++”. […] The determination was repeated three times.

[3] = read-out: minimum inhibitory concentration (MIC)
[4] = HeLa, read-out: median inhibitory concentration (IC50)

Compound: Nc1nc(O)c2ncn(COC(CO)CO)c2n1 [Ganciclovir, reference compound]
- MIC (No. 04 Coronavirus [1]; [3]): 23.4 µg/mL (≈ 91.8 µM)
- IC50 (No. 04 Coronavirus [1]; [4]): 11.7 µg/mL (≈ 45.8 µM)
- minimum toxic dose (TD0) (HELA cell; HELA cells, CPE, Reed-Muench): 6000 ± 0 µg/mL
- median toxic dose (TD50) (HELA cell; human): 6000 ± 0 µg/mL
- IC50 (No. 04 Coronavirus [2]; [4]): 11.7 µg/mL (≈ 45.8 µM)
- MIC (No. 04 Coronavirus [2]; [3]): 23.4 µg/mL (≈ 91.8 µM)
